Measurements as given in patent publication US20230227392A1, “A APPLICATION OF CYATHANE DITERPENOIDS IN PREPARATION OF DRUGS FOR TREATING NEUROINFLAMMATION” (Northwest A&F University, priority 2022, published 2023).
“Also recorded” adds a separate entry of the source.

What was measured:
Format in all cases: cell-based, mouse
[1] = test system: LPS-induced BV-2 microglia; assay: Inhibition of nitric oxide (NO) production, Griess method; conditions: 1 μg/mL LPS + 10 μM compound, 24 h, FIG. 2
Experimental: The mouse microglia (BV-2) were cultured in the DMEM culture medium containing 10% of fetal bovine serum (FBS) and 1% of antibiotics (100 U/mL of […] and penicillin) at 37° C. in the incubator of 5% CO2.
NO is an important inflammatory mediator. Excessive production of NO is common in neurons and glial cells of brains with ND^[8]. Griess reagent was configured to evaluate the influence on NO production in order to measure the anti-inflammatory effects of sarcodonin A and its derivative in LPS-induced BV-2 microglia. Before adding the detection reagent, BV-2 cells (2×10^5/mL) were incubated in the 96-well plate and cultured at 37° C. for 24 h. The experimental groups were divided into a control group (DMSO), an LPS-treated group ([…] of LPS) and a compound-treated group (1 μg/mL of LPS+10 μM compound), and then incubation was performed for 24 h. The nitrite concentration in the culture medium was measured by a commercial analysis kit. The main principle was based on the griess method. Supernatant of the BV-2 cells (50 μL) reacted with the griess reagent (50 μL of griess regent I and 50 μL of griess regent II). The absorbance was measured at 540 nm on the Bio-Tek micropore plate reader, and the nitrite concentration was calculated by a nitrite standard curve with sodium nitrite as the standard.
The inhibition rate %=(ALPS−Acompound)/(ALPS−Ablank)×100;

LPS-induced BV-2 cells [2] = assay: mRNA levels of M1/M2 biomarkers by qRT-PCR; conditions: FIG. 3; for mRNA expression of COX-2 induced by the LPS / mRNA level of IL-10: 10 μM / tested concentration; for mRNA expression of IL-6 induced by the LPS / mRNA level of ARG-1: 10 μM; for mRNA expression of TNF-α induced by the LPS: 1 at 10 μM; for mRNA level of IL-10 / mRNA level of ARG-1: M2 marker
Experimental: In order to detect the regulation of M1/M2 phenotype switch by 1 and 6, the effects on the mRNA expression of representative M1 and M2 biomarkers in the LPS-stimulated BV-2 cells were evaluated. The cells were incubated into a 6 cm of culture dish (5 mL/dish) at a density of 2×10^5 cfu, and cultured in a constant-temperature incubator of 5% CO2 at 37° C. for 12 h. According to the manufacturer's instructions, total RNA was extracted by Trizol, and concentration and purity thereof were measured by a UV-Vis spectrophotometer. 2 μg of isolated RNA was reversely transcribed into cDNA by Prime Script RTMaster Mix kit. By using a Syr Green quantitative RT-PCR kit, an mRNA level was evaluated by qRT-PCR response. β-actin was used as an internal standard. The primer sequences are as follows (Table 1).

LPS-induced BV-2 cells [3] = assay: M1/M2 marker cytokine secretion by ELISA; conditions: for production of IL-1β / production of IL-6 / production of IL-10 / production of TNF-α: 3 and 10 μM, 1 h pretreatment then LPS 24 h, effect enhanced as concentration increases, FIG. 4
Experimental: To further evaluate the role of 1 and 6 in M1 polarization of the LPS-induced microglia, the release of pro-inflammatory M1 cytokines (including TNF-α, IL-6 and IL-1β) and anti-inflammatory M2 cytokines (including IL-10) in the LPS-induced BV-2 cells was detected by ELISA. The BV-2 cells were incubated in a 6-well plate (2 mL/well) at a density of 2×10^5 cfu, cultured in a constant-temperature incubator of 5% CO2 at 37° C. for 24 h, then pretreated with different concentrations of compounds 1 and 6 (3 μM, 10 μM), LPS (1 μg/mL) and DMSO for 1 h, and then induced by the LPS for 24 h. Supernatant of the cell culture medium was collected, and the concentrations of TNF-α, IL-6, IL-10 and IL-1β were measured according to manufacturer's instructions.

LPS-induced BV-2 cells [4] = assay: M1/M2 marker protein expression by Western blotting; conditions: FIG. 5; for M1/M2 polarization of the LPS-induced BV-2 cells: conclusion from marker expression
Experimental: The protein expression of iNOS, COX-2(M1 marker) and ARG-1(M2 marker) was analyzed by Western blotting. The BV-2 cells (5×10^5 cfu) cultured in a 6 cm dish were pretreated with 1 or 6 ([…]) respectively for 1 h, and then 1 μg/ml LPS was added for 24 h. The cells were lysed in an ice-cold RIPA lysis buffer with a mixed solution of 10 mM of PMSF and 1% of protein inhibitors. The cytosol lysate was centrifuged at 4° C. at 12000 rpm for 30 minutes. Total protein was isolated from the lysate and their concentration was determined by BCA.
A sample was separated by 8%-12% SDS-PAGE and transferred to a […] PVDF membrane. The membrane was blocked with 5% BSA in TBST (20 mM of Tris-HCl, 150 mM of NaCl, 0.1% of Tween-20) for 1 h at room temperature, and then incubated with appropriate primary antibodies: anti-β-tubulin (1:1000), anti-GAPDH (1:1000), anti-iNOS (1:500), anti-COX-2 (1:1000) and anti-ARG-1 (1:500) at 4° C. overnight. The membrane was washed in the TBST for 3×5 minutes, and then incubated with the secondary antibody bound to appropriate peroxidase (HRP) and left at room temperature for 1 h. The blot was washed in the TBST for 3×5 minutes and exposed to an ECL chemiluminescence reagent. At last, the signal was detected by the Bio-Rad ChemiDoc XRS+ system.

[5] = test system: LPS-induced BV-2 microglia; assay: MAPK phosphorylation (ERK1/2, JNK, p38 MAPK) by Western blotting; conditions: Western blot, 1 h pretreatment then LPS 1 μg/mL 30 min; FIG. 6
Experimental: Previous studies have shown that the over-activation of MAPK signaling cascade is related to neuroinflammatory reaction^[9-10]. In order to clarify the action mode of 6 in reversing the M1 polarization of the microglia, the effects of 6 on phosphorylation levels of ERK1/2, […] and p38 MAPK in the LPS-induced BV-2 microglia are further studied. BV-2 cells (5×10^5 cfu) cultured in a 6 cm dish are pretreated with compound 1 or 6 ([…]) respectively for 1 h, and then added with the LPS (1 μg/mL) for 30 min. The similar method is used by Western blotting, and the primary antibodies are: […] (1:1000), anti-GAPDH (1:1000), anti-ERK1/2 (1:1000), anti-phosphorylated ERK1/2 (1:1000), anti-p38 MAPK (1:2000), anti-phosphorylated p38 MAPK (1:1000), anti-JNK (1:2000) and anti-phosphorylated JNK (1:1000).

LPS-induced BV-2 cells [6] = assay: Nuclear translocation of NF-κB subunit p65 by Western blotting; conditions: Western blot of nuclear and cytoplasmic parts
Text: The nuclear translocation of NF-κB subunit p65 as an activation index of NF-κB is examined. The cells were collected in the same way for Western blotting. A extraction kit is configured to isolate and extract nuclear and cytoplasmic parts according to the instructions. The primary antibodies are anti-NF-κB p65 (1:1000), anti-Lamin B1 (1:1000) and anti-GAPDH (1:1000).

[7] = Western blot, 1 h pretreatment then 1 μg/ml LPS 24 h

SMILES	inhibition of NO production (in words) [1]	mRNA expression of COX-2 induced by the LPS (LPS-induced BV-2 cells [2]; M1 marker)	mRNA expression of IL-6 induced by the LPS (LPS-induced BV-2 cells [2]; M1 marker)	mRNA expression of TNF-α induced by the LPS (LPS-induced BV-2 cells [2]; M1 marker)	mRNA level of IL-10 (LPS-induced BV-2 cells [2])	mRNA level of ARG-1 (LPS-induced BV-2 cells [2])	production of IL-1β (LPS-induced BV-2 cells [3])	production of IL-6 (LPS-induced BV-2 cells [3])	production of IL-10 (LPS-induced BV-2 cells [3])	production of TNF-α (LPS-induced BV-2 cells [3])	protein expression of ARG-1 (LPS-induced BV-2 cells [4]; [7])	protein expression of LPS-induced iNOS (LPS-induced BV-2 cells [4]; [7])	M1/M2 polarization of the LPS-induced BV-2 cells (LPS-induced BV-2 cells [4])	also measured
CC(COC(=O)c1ccccc1Br)C1=C2C3=CC=C(C=O)CC(O)C3(C)CCC2(C)CC1 (centres unmarked) [Compound 4]	higher inhibitory activity; also recorded: highest inhibitory activity in o-halogen-substituted 19-O-benzoyl derivatives													
CC(=O)OCC(C)C1=C2C3=CC=C(C=O)CC(OC(C)=O)C3(C)CCC2(C)CC1 (centres unmarked) [Compound 7]	strong inhibitory effect similar to that of 6													
CC(CO)C1=C2C3=CC=C(C=O)C[C@H](O)[C@]3(C)CC[C@@]2(C)CC1 (some centres unmarked) [Compound 1, sarcodonin A]	can inhibit	does not affect	inhibits	inhibits	does not affect	enhance	inhibitory effect	inhibitory effect	promoting effect	inhibitory effect	promotes	inhibits	inhibit the M1 polarization and enhance M2 polarization	
CC(COC(=O)c1ccc(Br)cc1)C1=C2C3=CC=C(C=O)CC(O)C3(C)CCC2(C)CC1 (centres unmarked) [Compound 6]	higher inhibitory activity; also recorded: strongest activity	inhibits	inhibits	inhibits	promotes	promotes	inhibitory effect	inhibitory effect	promoting effect	inhibitory effect	more obvious promoting effect	more obvious inhibitory effect	inhibit the M1 polarization and enhance M2 polarization	inhibitory activity on NO production (inhibition rate) ([1]; compared with the LPS control group): 55%; mRNA expression of IL-1β induced by the LPS (LPS-induced BV-2 cells [2]; M1 marker): inhibits; mRNA expression of iNOS induced by the LPS (LPS-induced BV-2 cells [2]; M1 marker): inhibits; comparison of effect on cytokine production at the same concentration (LPS-induced BV-2 cells [3]; IL-6, IL-1β, TNF-α, IL-10, FIG. 4): more effective than 1; protein expression of COX-2 (LPS-induced BV-2 cells [4]; [7]): more obvious inhibitory effect; activation (phosphorylation) of ERK1/2 induced by the LPS [5]: significantly inhibits; activation (phosphorylation) of INK induced by the LPS [5]: significantly inhibits; phosphorylation of p38 MAPK [5]: little effect; LPS-stimulated nuclear translocation of NF-κB p65 (LPS-induced BV-2 cells [6]): significantly inhibits
CC(COC(=O)c1ccccc1Cl)C1=C2C3=CC=C(C=O)CC(O)C3(C)CCC2(C)CC1 (centres unmarked) [Compound 3]	higher inhibitory activity													
